Experimental data published in patent US6500846B1, “CDK inhibitors having flavone structure” (LG Chemical, Ltd., priority 1998, dated 2002).

How the values were obtained:
CDK2/cyclin A = target: T1, CDK2/cyclin A (Homo sapiens, UniProt P24941); test: Inhibitory activity against CDK2/cyclin A enzyme (GST-RB phosphorylation, P32-γ-ATP, scintillation counting); assay type: biochemical; conditions: 100 μM ATP, GST-RB substrate, 30° C. 30 minutes
T1 construct: made in house; host or cells: insect cells infected with baculoviruses
Experimental: (§1) Analysis of inhibitory activity against CDK2/cyclin A and CDK4/cyclin D1 enzyme.
(§2) The inhibitory activity against CDK2 is measured by referring to Kitagawa, M. et al., Oncogene 9:2549, 1994 and the inhibitory activity against CDK4 is measured by referring to Carlson, B. A. et al., Cancer Research 56:2473,1996.
(§3) As for CDK2, either the extract from the insect cell infected both with baculovirus which expresses CDK2 gene and baculovirus which expresses cyclin A gene or the active enzyme which had been purified therefrom was used. CDK4 enzyme was also obtained from the insect cell infected both with baculovirus expressing CDK4 gene and baculovirus expressing cyclin D1 gene. As the substrate for CDK2, either histon H1 or Rb protein was used. Rb protein was also used as the substrate for CDK4.
(§4) Specifically the activities of enzymes CDK2/cyclin A and CDK4/cyclin D1 were determined according to the following procedure.
(§5) 100 ng of enzyme was reacted in a total 1000 μl of 20 mM Tris (pH 8.0), 100 mM NaCl, 10 mM MgCl2 buffer solution containing 20 μg of GST-RB protein, 100 μM of ATP and 5 μCi of P32-γ-ATP at 30° C. for 30 minutes. Then, the enzyme reaction was stopped by adding EDTA to a concentration of 20 mM. Subsequently, 30 μl of 50% glutathione bead (purchased from Pharmacia) was added to attach GST-RB to the bead, which was washed three times with 20mM Tris (pH 8.0), 100 mM NaCl, 10 mM EDTA solution, and then scintillation counting was carried out. To analyze the inhibitory activity of the compound, the inhibitor having a proper concentration was added to the enzyme reaction solution, and then the enzyme activity was measured according to the above method.
(§6) The inhibitory activity of the compound of formula (1) according to the present invention against CDK2 and CDK4 is represented as IC50 value. The compounds which are not included in Examples(compound 63, 64, 65 and 66) were synthesized and purified according to the same procedure as examples, and then IC50 thereof was measured.

in vivo = conditions: male, ICR, mouse, po
Experimental: The acute oral toxcities of the compounds 14, 17, 28, 39, 51 and 57 each of which is obtained in Examples 14, 17, 73,84, 96 and 102, respectively are investigated in the following.
Solutions containing a compound in several different concentrations from each other were prepared, and they were administered orally to ICR male mouse with a dose of 10 ml/kg.
After administration, lethality and symptoms for 7 days were observed, and LD50 (mg/kg) was calculated according to Litchfield-Wilcoxon' method.

CDK4/cyclin D1 = target: T2, CDK4/cyclin D1 (Homo sapiens, UniProt P11802); test: Inhibitory activity against CDK4/cyclin D1 enzyme (GST-RB phosphorylation, P32-γ-ATP, scintillation counting); assay type: biochemical; conditions: CDK4/cyclin D1, 100 μM ATP, GST-RB substrate, 30° C. 30 minutes
T2 construct: made in house; host or cells: insect cells infected with baculoviruses
T2 sequence (P11802 whole entry, species assumed): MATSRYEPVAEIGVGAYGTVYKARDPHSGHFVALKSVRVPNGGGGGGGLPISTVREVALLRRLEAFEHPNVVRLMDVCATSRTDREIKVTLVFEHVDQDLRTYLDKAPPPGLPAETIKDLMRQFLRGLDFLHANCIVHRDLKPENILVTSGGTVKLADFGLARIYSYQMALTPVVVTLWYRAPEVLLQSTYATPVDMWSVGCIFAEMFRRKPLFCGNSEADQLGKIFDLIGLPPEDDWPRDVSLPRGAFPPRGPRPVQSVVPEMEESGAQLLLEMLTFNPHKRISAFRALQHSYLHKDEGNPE
T2 sequence (P24385 whole entry partner, species assumed): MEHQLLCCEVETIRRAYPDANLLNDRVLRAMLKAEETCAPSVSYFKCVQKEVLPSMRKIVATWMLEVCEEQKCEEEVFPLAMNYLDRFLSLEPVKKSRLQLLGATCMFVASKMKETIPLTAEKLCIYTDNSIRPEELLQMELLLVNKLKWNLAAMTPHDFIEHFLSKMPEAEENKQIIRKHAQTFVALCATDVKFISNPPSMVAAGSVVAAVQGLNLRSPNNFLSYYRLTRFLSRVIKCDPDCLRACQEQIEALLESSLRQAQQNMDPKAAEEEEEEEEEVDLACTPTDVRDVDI
Experimental: as §1, §2, §3, §4, §5, §6

Row | Compound | IC50 (CDK2/cyclin A) | LD50 at 7 days (in vivo) | IC50 (CDK4/cyclin D1)
1 | O=c1c(O)c(-c2ccc(O)c(O)c2)oc2ccc(O)cc12 [Compound 14, 2-(3,4-dihydroxyphenyl)-3,6-dihydroxy-4H-chromen-4-one] | < 5 µM | > 3000 mg/kg | < 5 µM
2 | CC(=O)Nc1ccc2oc(-c3ccc(O)c(O)c3)c(O)c(=O)c2c1 [Compound 51, N-[2-(3,4-dihydroxyphenyl)-3-hydroxy-4-oxo-4H-chromen-6-yl]acetamide] | 5.6 µM | > 3000 mg/kg | 5.6 µM
